2 molecules from patent publication US10407445B2, “Hepatitis C virus inhibitors” (ENANTA PHARMACEUTICALS, INC., priority 2013, dated 2019) can be followed below.

Common to all, as to assay type: cell-based
Settings in all cases: Hepatitis C virus

The subject of assay [1] is GT4a-ED43 replicon. Put plainly: Stable replicon assay, comparison to daclatasvir, GT4a-ED43. From the text: The GT3a-S52 replicon plasmid pSGRlucneo-GT3a-S52-HDVR-(ISH) was synthesized by Genscript. This plasmid encodes a GT3a (strain S52, accession GU814264) bicistronic subgenomic replicon encoding the hRluc-Neo reporter gene in the first cistron and NS3-NS5B, driven by an encephalomyocarditis virus (EMCV) internal ribosome entry site (IRES), in the second cistron. The hepatitis delta ribozyme (HDVR) was included after the HCV 3′ NTR followed by a unique SpeI restriction site for linearization. This replicon encodes three cell culture adaptive mutations, P1226S (NS3), D1437H (NS3), and S2210I (NS5A), as described previously (Saeed et al 2012 Antimicrob. Agents Chemother. 54: 1878-1887). The GT4a-ED43 replicon plasmid pSGRlucneo-GT4a-ED43-HDVR-(KG) was synthesized by Genscript. […]
Stable HCV replicon cell lines were grown in complete media (Dulbecco's modified Eagle medium [DMEM], 2 mM L-glutamine, 0.1 mM essential amino acids, 1 mM sodium pyruvate, 10% fetal bovine serum) with the addition 500 μg/ml […] (G418). […] For stable and transient replicon assays, luciferase activity of compound-treated cells was measured relative to DMSO-treated cells after 72 h incubation using RENILLA-GLO™ Luciferase Assay (Promega). […]

The subject of assay [2] is HCV genotype 1a replicon, NS5A K24E. Put plainly: Transient replication assay, GT1a NS5A K24E.
Assay [3] has as its system HCV genotype 1a replicon, NS5A L31V. The assay can be described thus: Transient replication assay, GT1a NS5A L31V.
Assay [4] relates to HCV genotype 1a replicon, NS5A Q30H. The assay can be described thus: Transient replication assay, GT1a NS5A Q30H.
In assay [5] the test system is HCV genotype 1a replicon, NS5A K24N Q30R. The assay can be described thus: Transient replication assay, GT1a NS5A K24N Q30R.
The test system of assay [6] is HCV genotype 1a replicon, NS5A M28V Y93H. Put plainly: Transient replication assay, GT1a NS5A M28V Y93H.
Assay [7] relates to HCV genotype 1a replicon, NS5A M28V Y93C. The assay can be described thus: Transient replication assay, GT1a NS5A M28V Y93C.
For assay [8], the system named is HCV genotype 1a replicon, NS5A Q30R Y93C. Put plainly: Transient replication assay, GT1a NS5A Q30R Y93C.

For `COC(=O)N[C@H](C(=O)N1C[C@]2(CCCOC2)C[C@H]1c1ncc(-c2ccc(-c3ccc4c(ccc5nc([C@@H]6C[C@@H]7CCC[C@@H]7N6C(=O)[C@@H](NC(=O)OC)C(C)C)[nH]c54)c3)cc2)[nH]1)C(C)C` [Compound 16], the concentration giving a half-maximal response (EC50) in assay [1] was 0.011 nM; in assay [2] it was 0.0013 nM; in assay [3], 0.15 nM; in assay [4] it was 0.006 nM; in assay [5] it was 1.2 nM; in assay [6], 15 nM. Besides, the values for the 50% effective concentration (EC50) in assay [7] and in assay [8] were 1 nM and 1.4 nM, respectively.

Consider `COC(=O)N[C@H](C(=O)N1CCC[C@H]1c1nc(-c2ccc(-c3ccc(-c4c[nH]c([C@@H]5CCCN5C(=O)[C@@H](NC(=O)OC)C(C)C)n4)cc3)cc2)c[nH]1)C(C)C` [Daclatasvir, reference compound], for which the EC50 in assay [1] worked out at 0.025 nM; in assay [2] it was 0.0022 nM; in assay [3] it was 4.5 nM; in assay [4], 0.8 nM; in assay [5], 8 nM; in assay [6] it was 17.5 nM. The 50% effective concentration (EC50) is 3.5 nM in assay [7] and 26 nM in assay [8].
